Experimental data as given in patent US9636418B2 (priority 2013, dated 2017).
Read-outs that look alike come from different tables or passages of the source.

Key:
Assay in all cases: cell-based
hNav1.7 [1] = molecular target: T1, hNav1.7 (Homo sapiens, UniProt Q15858); conditions: IonWorks Quattro; read-out: IC50 Nav1.7
hNav1.4 [2] = molecular target: T2, hNav1.4 (Homo sapiens, UniProt P35499); conditions: for IC50: PatchXpress, * = at high concentrations compound would wash off slowly or not at all, read-out: PX hNav1.4 Tonic IC50
hNav1.7 [3] = molecular target: T1, hNav1.7; format: cell-based; conditions: PatchXpress; * = at high concentrations compound would wash off slowly or not at all; read-out: PX hNav1.7 Tonic IC50
hNav1.3 = hNav1.3 (Homo sapiens, UniProt Q9NY46); conditions: IonWorks Quattro; read-out: IC50 Nav1.3
hNav1.5 [4] = molecular target: T3, hNav1.5 (Homo sapiens, UniProt Q14524); conditions: IonWorks Quattro; read-out: IC50 Nav1.5
hNav1.4 [5] = molecular target: T2, hNav1.4; conditions: for IC50: IonWorks Quattro, read-out: IC50 Nav1.4; for Nav1.4/Nav1.7: ratio of IonWorks Quattro IC50 values
hNav1.5 [6] = molecular target: T3, hNav1.5; conditions: PatchXpress; * = at high concentrations compound would wash off slowly or not at all; read-out: PX hNav1.5 Tonic IC50

T2 sequence (P35499 whole entry): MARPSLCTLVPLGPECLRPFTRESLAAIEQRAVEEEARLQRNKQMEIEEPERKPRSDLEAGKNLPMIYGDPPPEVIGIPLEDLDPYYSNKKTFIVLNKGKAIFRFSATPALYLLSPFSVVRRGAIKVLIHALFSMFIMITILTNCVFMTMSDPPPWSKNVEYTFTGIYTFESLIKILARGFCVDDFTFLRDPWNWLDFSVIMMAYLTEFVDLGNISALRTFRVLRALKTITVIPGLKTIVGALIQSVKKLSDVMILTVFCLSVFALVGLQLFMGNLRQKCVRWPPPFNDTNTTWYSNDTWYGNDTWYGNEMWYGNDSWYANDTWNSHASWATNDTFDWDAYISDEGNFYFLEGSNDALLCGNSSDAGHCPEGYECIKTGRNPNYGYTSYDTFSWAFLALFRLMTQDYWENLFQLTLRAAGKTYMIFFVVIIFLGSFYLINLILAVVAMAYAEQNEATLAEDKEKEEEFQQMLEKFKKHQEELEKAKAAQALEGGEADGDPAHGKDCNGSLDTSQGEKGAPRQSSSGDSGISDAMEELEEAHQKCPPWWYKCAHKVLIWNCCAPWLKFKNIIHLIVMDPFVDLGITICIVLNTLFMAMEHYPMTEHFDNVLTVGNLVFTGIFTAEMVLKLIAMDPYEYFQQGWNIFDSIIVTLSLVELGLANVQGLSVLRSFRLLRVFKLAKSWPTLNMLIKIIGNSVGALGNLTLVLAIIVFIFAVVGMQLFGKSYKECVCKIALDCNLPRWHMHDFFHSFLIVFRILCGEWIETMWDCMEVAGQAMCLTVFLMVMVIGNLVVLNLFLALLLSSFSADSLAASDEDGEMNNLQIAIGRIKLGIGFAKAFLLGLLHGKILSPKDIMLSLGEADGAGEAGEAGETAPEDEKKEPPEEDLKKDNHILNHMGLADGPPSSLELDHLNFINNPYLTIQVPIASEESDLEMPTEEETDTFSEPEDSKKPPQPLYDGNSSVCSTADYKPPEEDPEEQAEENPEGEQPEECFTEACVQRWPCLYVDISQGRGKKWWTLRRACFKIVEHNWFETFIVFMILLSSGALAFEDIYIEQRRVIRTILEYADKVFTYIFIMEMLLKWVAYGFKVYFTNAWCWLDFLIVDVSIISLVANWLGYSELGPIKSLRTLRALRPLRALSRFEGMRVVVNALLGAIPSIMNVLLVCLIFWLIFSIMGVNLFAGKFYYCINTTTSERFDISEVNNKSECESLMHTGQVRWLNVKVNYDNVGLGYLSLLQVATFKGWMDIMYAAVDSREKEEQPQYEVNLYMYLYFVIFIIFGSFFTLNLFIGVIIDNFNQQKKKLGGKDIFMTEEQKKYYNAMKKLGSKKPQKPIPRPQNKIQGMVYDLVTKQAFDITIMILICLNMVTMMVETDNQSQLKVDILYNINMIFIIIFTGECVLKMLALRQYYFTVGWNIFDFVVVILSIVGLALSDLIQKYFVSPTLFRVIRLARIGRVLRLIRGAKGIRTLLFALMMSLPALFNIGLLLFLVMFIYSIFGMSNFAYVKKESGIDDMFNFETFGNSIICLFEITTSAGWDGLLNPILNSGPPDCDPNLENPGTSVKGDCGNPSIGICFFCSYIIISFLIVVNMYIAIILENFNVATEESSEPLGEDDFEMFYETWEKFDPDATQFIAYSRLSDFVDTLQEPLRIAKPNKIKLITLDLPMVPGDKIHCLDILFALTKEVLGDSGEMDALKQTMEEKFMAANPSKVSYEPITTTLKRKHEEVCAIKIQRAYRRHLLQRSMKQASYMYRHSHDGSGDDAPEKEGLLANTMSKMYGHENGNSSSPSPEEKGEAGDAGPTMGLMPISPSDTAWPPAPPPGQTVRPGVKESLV
T3 sequence (Q14524 whole entry): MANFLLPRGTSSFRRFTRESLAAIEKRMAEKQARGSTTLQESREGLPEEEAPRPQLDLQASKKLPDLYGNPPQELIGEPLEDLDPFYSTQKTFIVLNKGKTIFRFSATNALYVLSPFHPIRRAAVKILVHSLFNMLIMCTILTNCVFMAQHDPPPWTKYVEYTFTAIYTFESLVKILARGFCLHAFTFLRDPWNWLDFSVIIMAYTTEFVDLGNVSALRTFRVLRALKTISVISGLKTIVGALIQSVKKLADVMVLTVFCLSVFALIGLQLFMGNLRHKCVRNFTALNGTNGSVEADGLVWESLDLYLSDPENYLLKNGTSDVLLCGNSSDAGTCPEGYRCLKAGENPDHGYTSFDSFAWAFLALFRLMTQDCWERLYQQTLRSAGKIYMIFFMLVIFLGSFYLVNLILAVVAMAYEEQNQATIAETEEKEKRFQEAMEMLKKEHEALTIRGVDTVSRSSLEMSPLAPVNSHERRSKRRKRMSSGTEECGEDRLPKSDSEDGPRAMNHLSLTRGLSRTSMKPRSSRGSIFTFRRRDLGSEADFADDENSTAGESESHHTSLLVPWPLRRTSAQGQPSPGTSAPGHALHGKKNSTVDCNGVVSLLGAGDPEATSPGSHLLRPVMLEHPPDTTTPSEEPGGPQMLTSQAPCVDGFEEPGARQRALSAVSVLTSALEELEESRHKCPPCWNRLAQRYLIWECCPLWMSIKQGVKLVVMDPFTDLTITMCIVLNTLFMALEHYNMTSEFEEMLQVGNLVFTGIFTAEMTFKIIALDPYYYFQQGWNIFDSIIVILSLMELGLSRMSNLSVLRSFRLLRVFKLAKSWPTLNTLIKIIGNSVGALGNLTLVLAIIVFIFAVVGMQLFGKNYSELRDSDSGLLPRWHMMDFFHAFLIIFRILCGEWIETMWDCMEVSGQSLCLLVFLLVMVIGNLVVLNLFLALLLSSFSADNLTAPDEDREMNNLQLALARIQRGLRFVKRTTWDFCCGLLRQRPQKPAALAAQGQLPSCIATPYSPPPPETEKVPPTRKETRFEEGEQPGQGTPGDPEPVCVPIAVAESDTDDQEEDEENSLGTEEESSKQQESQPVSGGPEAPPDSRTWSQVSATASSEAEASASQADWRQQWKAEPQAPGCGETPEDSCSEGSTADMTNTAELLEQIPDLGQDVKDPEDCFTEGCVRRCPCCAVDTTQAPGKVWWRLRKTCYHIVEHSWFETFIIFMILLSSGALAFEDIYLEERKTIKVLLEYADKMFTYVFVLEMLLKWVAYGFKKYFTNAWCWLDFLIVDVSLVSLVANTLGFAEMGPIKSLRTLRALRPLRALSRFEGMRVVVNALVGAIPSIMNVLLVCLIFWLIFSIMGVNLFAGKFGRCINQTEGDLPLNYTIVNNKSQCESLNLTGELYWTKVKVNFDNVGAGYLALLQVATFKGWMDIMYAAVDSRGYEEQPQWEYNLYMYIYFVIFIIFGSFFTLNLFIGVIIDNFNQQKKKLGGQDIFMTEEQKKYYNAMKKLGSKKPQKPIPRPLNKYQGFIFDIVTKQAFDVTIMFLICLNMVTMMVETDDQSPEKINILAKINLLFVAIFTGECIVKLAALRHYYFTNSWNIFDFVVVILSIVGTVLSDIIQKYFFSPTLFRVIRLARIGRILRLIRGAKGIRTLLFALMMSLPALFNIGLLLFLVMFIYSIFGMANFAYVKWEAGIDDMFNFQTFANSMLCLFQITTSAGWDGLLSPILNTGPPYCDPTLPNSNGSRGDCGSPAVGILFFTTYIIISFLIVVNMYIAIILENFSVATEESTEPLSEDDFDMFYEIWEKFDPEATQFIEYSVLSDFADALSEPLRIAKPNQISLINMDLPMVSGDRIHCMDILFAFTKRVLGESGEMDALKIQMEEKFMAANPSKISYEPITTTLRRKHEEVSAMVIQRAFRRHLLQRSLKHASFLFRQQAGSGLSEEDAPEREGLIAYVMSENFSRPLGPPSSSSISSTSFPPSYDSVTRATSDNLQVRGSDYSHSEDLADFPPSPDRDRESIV

Row | SMILES | IC50 (hNav1.7 [1]) | IC50 (hNav1.4 [2]) | IC50 (hNav1.7 [3]) | IC50 (hNav1.3) | IC50 (hNav1.5 [4]) | IC50 (hNav1.4 [5]) | Nav1.4/Nav1.7 (hNav1.4 [5]) | IC50 (hNav1.5 [6]) | Nav1.4/Nav1.7 (hNav1.4 [2]; ratio of PX IC50 values)
1 | CC[C@H](C)[C@H](NC(=O)[C@@H](NC(=O)[C@H](CCCCN)NC(=O)[C@H](CCCNC(=N)N)NC(=O)[C@@H]1CSSC[C@@H]2NC(=O)[C@H](C)NC(=O)[C@H](CCCNC(=N)N)NC(=O)[C@H](CCCCN)NC(=O)[C@H](CO)NC(=O)[C@H](CC(=O)O)NC(=O)[C@@H]3CSSC[C@H](NC(=O)[C@H](Cc4ccc(O)cc4)NC(=O)[C@H](CC(C)C)NC(=O)CNC(=O)[C@H](CCC(=O)O)NC(=O)[C@H](CSSC[C@H](NC(=O)[C@@H](N)Cc4ccc(O)cc4)C(=O)N[C@@H](CCC(N)=O)C(=O)N[C@@H](CCCCN)C(=O)N[C@@H](Cc4c[nH]c5ccccc45)C(=O)N[C@@H](CCSC)C(=O)N[C@@H](Cc4c[nH]c5ccccc45)C(=O)N[C@@H]([C@@H](C)O)C(=O)N3)NC2=O)C(=O)N[C@@H](CCCCN)C(=O)N[C@@H](CC(C)C)C(=O)N[C@@H](Cc2c[nH]c3ccccc23)C(=O)N1)[C@@H](C)CC)C(N)=O [compound 124] | 90 nM | 1570 nM | 5.9 nM | > 5000 nM | 10800 nM | 4000 nM | 43 | > 10000 nM | 
2 | CC[C@H](C)[C@H](NC(=O)[C@@H](NC(=O)[C@H](CCCCN)NC(=O)[C@H](CCCNC(=N)N)NC(=O)[C@@H]1CSSC[C@@H]2NC(=O)[C@H](C)NC(=O)[C@H](CCCNC(=N)N)NC(=O)[C@H](CCCCN)NC(=O)[C@H](CO)NC(=O)[C@H](CC(=O)O)NC(=O)[C@@H]3CSSC[C@H](NC(=O)CNC(=O)[C@H](CC(C)C)NC(=O)CNC(=O)[C@H](CCC(=O)O)NC(=O)[C@H](CSSC[C@H](NC(=O)[C@@H](N)Cc4ccc(O)cc4)C(=O)N[C@@H](CCC(N)=O)C(=O)N[C@@H](CCCCN)C(=O)N[C@@H](Cc4c[nH]c5ccccc45)C(=O)N[C@@H](CCSC)C(=O)N[C@@H](Cc4c[nH]c5ccccc45)C(=O)N[C@@H]([C@@H](C)O)C(=O)N3)NC2=O)C(=O)N[C@@H](CCCCN)C(=O)N[C@@H](CC(C)C)C(=O)N[C@@H](Cc2c[nH]c3ccccc23)C(=O)N1)[C@@H](C)CC)C(N)=O [compound 121] | 60 nM | 197 nM | 7.8 nM | 980 nM | 9800 nM | 1900 nM | 29 | 14100 nM | 25
3 | CC[C@H](C)[C@H](NC(=O)[C@H](Cc1ccc(O)cc1)NC(=O)[C@H](CCCCN)NC(=O)[C@H](CCCNC(=N)N)NC(=O)[C@@H]1CSSC[C@@H]2NC(=O)[C@H](C)NC(=O)[C@H](CCCNC(=N)N)NC(=O)[C@H](CCCCN)NC(=O)[C@H](CO)NC(=O)[C@H](CC(=O)O)NC(=O)[C@@H]3CSSC[C@H](NC(=O)[C@H](CCC(=O)O)NC(=O)[C@H](CC(C)C)NC(=O)CNC(=O)[C@H](CCC(=O)O)NC(=O)[C@H](CSSC[C@H](NC(=O)[C@@H](N)CCC(=O)O)C(=O)N[C@@H](CCC(N)=O)C(=O)N[C@@H](CCCCN)C(=O)N[C@@H](Cc4c[nH]c5ccccc45)C(=O)N[C@@H](CCSC)C(=O)N[C@@H](Cc4c[nH]c5ccccc45)C(=O)N[C@@H]([C@@H](C)O)C(=O)N3)NC2=O)C(=O)N[C@@H](CCCCN)C(=O)N[C@@H](CC(C)C)C(=O)N[C@@H](Cc2c[nH]c3ccccc23)C(=O)N1)C(N)=O [compound 277] | 210 nM | 939 nM | 5.5 nM | > 5000 nM | 2000 nM | > 5000 nM |  | > 10000 nM | 
